Our source for the IC50, ΔTm and remaining activity values is article PMC9097471, “Development of Selective Phosphatidylinositol 5-Phosphate 4-Kinase γ Inhibitors with a Non-ATP-competitive, Allosteric Binding Mode” (Journal of Medicinal Chemistry, 2022).

The subject of one assay is PI5P4Kγ. The arrangement: method as in ref 30 (1), ref 23 (2). The following applies: 32P-ATP/PI5P incorporation; ref 30 (1), ref 23 (2); cited from earlier work.
The test system of another assay is PI5P4Kα. The arrangement: method as in ref 30 (a number printed in a supplementary file, which may have a reference list of its own: not looked up in the article's list). The note with it: 32P-ATP/PI5P incorporation; cited from earlier work.
The target of a further assay is T1, PI5P4Kβ (Homo sapiens, UniProt P78356).
T1 sequence (P78356 1-416): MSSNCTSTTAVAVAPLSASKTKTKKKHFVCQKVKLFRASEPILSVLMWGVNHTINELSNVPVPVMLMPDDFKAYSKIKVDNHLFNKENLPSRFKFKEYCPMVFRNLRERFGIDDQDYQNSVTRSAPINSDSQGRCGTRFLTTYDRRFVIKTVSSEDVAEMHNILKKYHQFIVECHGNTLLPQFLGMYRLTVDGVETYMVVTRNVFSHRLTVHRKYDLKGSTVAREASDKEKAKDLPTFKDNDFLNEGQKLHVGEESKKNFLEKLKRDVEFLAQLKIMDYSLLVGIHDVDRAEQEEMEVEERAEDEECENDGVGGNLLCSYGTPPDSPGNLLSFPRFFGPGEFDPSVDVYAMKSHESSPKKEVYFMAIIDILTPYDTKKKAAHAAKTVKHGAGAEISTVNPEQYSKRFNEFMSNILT
Briefly: Thermal shift assay. The following applies: read-out: ΔTm PI5P4Kβ, thermal shift, compound 63 μM.

The target in a further assay is ABL (Homo sapiens, UniProt P00519). Briefly: Kinase panel, radiometric 33P filter binding. It is filed as biochemical. The text has this:
(§1) Kinase % activity remaining s.d.

The next assay has as its target CDK9-Cyclin T1 (Homo sapiens, UniProt P50750). Briefly: Kinase panel, radiometric 33P filter binding. Format: biochemical. The note with it: CDK9-Cyclin T1, 10 μM.
From the text: as §1

The next assay deals with SmMLCK (Homo sapiens, UniProt Q15746). Briefly: Kinase panel, radiometric 33P filter binding. It is filed as biochemical.
From the text: as §1

The target of a further assay is PINK (Tribolium castaneum, UniProt D6WMX4). Briefly: biochemical. The note with it: read-out: % activity remaining.
Sequence of PINK (D6WMX4 whole entry): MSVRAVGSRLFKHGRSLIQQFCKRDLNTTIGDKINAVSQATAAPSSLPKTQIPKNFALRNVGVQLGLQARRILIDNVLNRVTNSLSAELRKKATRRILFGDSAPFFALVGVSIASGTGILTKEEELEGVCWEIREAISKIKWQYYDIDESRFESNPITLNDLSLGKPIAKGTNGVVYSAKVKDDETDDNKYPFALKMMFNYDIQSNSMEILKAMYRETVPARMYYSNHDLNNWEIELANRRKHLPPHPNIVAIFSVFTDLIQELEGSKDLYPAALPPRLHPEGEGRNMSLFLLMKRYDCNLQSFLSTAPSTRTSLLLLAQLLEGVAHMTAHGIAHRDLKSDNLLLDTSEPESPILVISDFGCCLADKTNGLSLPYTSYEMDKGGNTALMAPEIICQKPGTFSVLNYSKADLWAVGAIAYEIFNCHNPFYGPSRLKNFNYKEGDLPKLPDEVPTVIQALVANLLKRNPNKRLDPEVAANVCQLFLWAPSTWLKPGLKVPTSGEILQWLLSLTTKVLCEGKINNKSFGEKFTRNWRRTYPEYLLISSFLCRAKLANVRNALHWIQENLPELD
A further assay deals with p38a MAPK (Homo sapiens, UniProt Q16539). Briefly: Kinase panel, radiometric 33P filter binding. The note with it: read-out: % activity remaining.
The target of another assay is PKA (Homo sapiens, UniProt P17612). Briefly: Kinase panel, radiometric 33P filter binding. The following applies: read-out: % activity remaining.
The next assay has as its target ROCK 2 (Rattus norvegicus, UniProt Q62868). Briefly: Kinase panel, radiometric 33P filter binding. The following applies: read-out: % activity remaining.
The target in the next assay is PKD1 (Homo sapiens, UniProt Q15139). Briefly: Kinase panel, radiometric 33P filter binding. The following applies: read-out: % activity remaining.
Sequence of PKD1 (Q15139 whole entry): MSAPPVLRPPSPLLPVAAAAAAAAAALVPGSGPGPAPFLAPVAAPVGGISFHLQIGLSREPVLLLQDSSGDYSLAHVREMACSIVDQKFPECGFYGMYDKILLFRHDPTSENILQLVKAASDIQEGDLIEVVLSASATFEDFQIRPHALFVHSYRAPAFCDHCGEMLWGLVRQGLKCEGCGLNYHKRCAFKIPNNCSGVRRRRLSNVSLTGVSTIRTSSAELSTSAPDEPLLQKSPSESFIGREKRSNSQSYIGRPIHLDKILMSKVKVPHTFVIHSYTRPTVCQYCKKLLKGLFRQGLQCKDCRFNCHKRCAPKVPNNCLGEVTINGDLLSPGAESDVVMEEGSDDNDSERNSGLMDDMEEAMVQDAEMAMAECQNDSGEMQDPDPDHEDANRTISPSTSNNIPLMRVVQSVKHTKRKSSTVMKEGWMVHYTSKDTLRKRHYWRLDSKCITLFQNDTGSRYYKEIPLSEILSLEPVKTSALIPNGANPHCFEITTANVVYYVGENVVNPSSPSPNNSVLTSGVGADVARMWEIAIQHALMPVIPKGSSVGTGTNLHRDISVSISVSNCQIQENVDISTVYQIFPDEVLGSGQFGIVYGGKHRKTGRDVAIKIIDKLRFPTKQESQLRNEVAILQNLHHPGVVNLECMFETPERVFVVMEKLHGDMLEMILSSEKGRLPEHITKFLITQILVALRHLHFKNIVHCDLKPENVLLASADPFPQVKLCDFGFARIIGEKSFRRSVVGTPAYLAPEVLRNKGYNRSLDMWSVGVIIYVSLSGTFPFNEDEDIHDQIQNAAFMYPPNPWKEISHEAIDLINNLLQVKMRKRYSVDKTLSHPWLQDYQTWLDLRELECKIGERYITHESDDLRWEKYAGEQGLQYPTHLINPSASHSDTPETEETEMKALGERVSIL
The target in another assay is MNK2 (Homo sapiens, UniProt Q9HBH9). Briefly: Kinase panel, radiometric 33P filter binding. The following applies: read-out: % activity remaining.
Another assay has as its target PRAK (Homo sapiens, UniProt Q8IW41). Briefly: Kinase panel, radiometric 33P filter binding. The following applies: read-out: % activity remaining.
The target of a further assay is TLK1 (Homo sapiens, UniProt Q9UKI8). Briefly: Kinase panel, radiometric 33P filter binding. The note with it: read-out: % activity remaining.
For another assay, the target named is MARK2 (Homo sapiens, UniProt Q7KZI7). Briefly: Kinase panel, radiometric 33P filter binding. The note with it: read-out: % activity remaining.
A further assay concerns the target MARK4 (Homo sapiens, UniProt Q96L34). Briefly: Kinase panel, radiometric 33P filter binding. The following applies: read-out: % activity remaining.
The next assay concerns the target SIK2 (Homo sapiens, UniProt Q9H0K1). Briefly: Kinase panel, radiometric 33P filter binding. The following applies: read-out: % activity remaining.
The target in a further assay is DYRK1A (Homo sapiens, UniProt Q13627). Briefly: Kinase panel, radiometric 33P filter binding. The following applies: read-out: % activity remaining.
The target in the next assay is DYRK3 (Homo sapiens, UniProt O43781). Briefly: Kinase panel, radiometric 33P filter binding. The following applies: read-out: % activity remaining.
Sequence of DYRK3 (O43781 whole entry): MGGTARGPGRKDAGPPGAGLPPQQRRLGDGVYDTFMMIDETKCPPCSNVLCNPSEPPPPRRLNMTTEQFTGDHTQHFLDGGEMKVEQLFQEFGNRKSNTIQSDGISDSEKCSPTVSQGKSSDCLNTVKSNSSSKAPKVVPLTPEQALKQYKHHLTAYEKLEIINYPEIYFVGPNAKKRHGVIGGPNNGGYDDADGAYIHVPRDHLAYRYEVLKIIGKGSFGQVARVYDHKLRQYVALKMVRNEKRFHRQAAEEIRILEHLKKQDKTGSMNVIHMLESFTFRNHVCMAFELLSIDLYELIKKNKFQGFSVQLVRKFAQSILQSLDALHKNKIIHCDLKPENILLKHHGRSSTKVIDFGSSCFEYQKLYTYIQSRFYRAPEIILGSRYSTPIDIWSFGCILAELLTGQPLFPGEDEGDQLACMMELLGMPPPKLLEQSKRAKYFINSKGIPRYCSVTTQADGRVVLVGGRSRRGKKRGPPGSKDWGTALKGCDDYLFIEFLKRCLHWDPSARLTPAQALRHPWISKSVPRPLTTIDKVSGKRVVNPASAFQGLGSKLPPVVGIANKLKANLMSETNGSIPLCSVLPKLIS
Another assay has as its target NEK6 (Homo sapiens, UniProt Q9HC98). Briefly: Kinase panel, radiometric 33P filter binding. The note with it: read-out: % activity remaining.
A further assay concerns the target PIM2 (Homo sapiens, UniProt Q9P1W9). Briefly: Kinase panel, radiometric 33P filter binding. The following applies: read-out: % activity remaining.
The target in the next assay is MST3 (Homo sapiens, UniProt Q9Y6E0). Briefly: Kinase panel, radiometric 33P filter binding. The following applies: read-out: % activity remaining.
For a further assay, the target named is MST4 (Homo sapiens, UniProt Q9P289). Briefly: Kinase panel, radiometric 33P filter binding. The note with it: read-out: % activity remaining.
A further assay concerns the target IRAK1 (Homo sapiens, UniProt P51617). Briefly: Kinase panel, radiometric 33P filter binding. The note with it: read-out: % activity remaining.
The target in a further assay is MPSK1 (Homo sapiens, UniProt O75716). Briefly: Kinase panel, radiometric 33P filter binding. The note with it: read-out: % activity remaining.
A further assay has as its target CSK (Homo sapiens, UniProt P41240). Briefly: Kinase panel, radiometric 33P filter binding. The note with it: read-out: % activity remaining.
The target of another assay is EPH-B2 (Homo sapiens, UniProt P29323). Briefly: Kinase panel, radiometric 33P filter binding. The following applies: read-out: % activity remaining.
The target in a further assay is EPH-B3 (Homo sapiens, UniProt P54753). Briefly: Kinase panel, radiometric 33P filter binding. The following applies: read-out: % activity remaining.
Another assay deals with FGF-R1 (Homo sapiens, UniProt P11362). Briefly: Kinase panel, radiometric 33P filter binding. The following applies: read-out: % activity remaining.
Sequence of FGF-R1 (P11362 22-822): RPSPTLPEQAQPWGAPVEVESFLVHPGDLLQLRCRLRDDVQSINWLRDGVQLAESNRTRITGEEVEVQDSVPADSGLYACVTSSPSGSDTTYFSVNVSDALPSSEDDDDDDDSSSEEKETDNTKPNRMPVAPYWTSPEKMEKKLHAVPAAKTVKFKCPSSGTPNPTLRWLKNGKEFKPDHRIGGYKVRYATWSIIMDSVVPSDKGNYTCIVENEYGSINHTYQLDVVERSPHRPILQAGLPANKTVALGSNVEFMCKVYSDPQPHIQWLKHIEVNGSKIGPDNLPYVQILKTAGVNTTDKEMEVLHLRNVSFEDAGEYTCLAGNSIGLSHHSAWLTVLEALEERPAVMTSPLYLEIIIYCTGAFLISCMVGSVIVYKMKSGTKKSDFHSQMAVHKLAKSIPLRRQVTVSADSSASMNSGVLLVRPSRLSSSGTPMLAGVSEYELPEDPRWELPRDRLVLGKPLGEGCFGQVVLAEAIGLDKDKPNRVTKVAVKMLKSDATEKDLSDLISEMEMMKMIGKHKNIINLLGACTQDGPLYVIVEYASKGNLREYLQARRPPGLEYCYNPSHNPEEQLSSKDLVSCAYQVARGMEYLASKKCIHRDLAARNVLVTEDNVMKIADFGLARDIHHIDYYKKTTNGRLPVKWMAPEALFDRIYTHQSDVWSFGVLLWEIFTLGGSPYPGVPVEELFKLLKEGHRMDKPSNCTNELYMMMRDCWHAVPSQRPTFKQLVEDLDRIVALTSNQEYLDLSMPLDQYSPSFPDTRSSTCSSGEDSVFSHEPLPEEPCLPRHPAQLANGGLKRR
The target in a further assay is IR (Homo sapiens, UniProt P06213). Briefly: Kinase panel, radiometric 33P filter binding. The note with it: read-out: % activity remaining.
For the next assay, the target named is TrkA (Homo sapiens, UniProt P04629). Briefly: Kinase panel, radiometric 33P filter binding. The following applies: read-out: % activity remaining.
Another assay concerns the target VEG-FR (Homo sapiens, UniProt P17948). Briefly: Kinase panel, radiometric 33P filter binding. The following applies: read-out: % activity remaining.

Sequence of SIK2 (Q9H0K1 whole entry): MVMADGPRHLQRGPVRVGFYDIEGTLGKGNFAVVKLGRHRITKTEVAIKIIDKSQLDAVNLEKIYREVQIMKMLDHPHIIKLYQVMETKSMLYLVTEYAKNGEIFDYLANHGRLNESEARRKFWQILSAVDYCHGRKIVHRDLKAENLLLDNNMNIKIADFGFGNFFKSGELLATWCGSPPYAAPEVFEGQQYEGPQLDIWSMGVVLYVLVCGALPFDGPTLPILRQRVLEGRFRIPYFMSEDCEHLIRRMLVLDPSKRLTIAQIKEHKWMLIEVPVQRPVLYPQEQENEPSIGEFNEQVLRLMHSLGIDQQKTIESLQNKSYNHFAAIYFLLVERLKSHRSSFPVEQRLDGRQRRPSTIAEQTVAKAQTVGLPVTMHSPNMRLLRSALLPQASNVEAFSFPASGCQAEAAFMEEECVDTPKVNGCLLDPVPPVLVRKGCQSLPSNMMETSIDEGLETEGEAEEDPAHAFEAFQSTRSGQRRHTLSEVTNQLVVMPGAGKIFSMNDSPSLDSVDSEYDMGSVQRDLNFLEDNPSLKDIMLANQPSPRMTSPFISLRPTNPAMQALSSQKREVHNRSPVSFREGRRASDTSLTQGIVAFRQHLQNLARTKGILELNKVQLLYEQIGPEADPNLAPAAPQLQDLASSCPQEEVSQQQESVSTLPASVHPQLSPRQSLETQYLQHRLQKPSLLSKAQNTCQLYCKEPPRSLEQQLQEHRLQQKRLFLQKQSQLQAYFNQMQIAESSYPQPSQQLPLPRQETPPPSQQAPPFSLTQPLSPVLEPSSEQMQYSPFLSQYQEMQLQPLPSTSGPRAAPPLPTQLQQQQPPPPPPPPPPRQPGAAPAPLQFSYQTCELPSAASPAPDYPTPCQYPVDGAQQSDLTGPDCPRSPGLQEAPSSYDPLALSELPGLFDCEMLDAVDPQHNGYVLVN
Sequence of NEK6 (Q9HC98 whole entry): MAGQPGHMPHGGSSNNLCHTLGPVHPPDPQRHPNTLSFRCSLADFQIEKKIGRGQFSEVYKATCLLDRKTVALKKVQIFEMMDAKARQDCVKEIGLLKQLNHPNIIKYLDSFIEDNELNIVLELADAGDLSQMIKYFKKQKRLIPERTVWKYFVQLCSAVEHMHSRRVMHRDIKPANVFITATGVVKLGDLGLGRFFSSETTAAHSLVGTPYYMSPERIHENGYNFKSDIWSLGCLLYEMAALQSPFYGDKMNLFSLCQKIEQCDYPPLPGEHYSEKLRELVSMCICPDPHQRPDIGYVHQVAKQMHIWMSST
Sequence of ROCK 2 (Q62868 2-543 limits assumed): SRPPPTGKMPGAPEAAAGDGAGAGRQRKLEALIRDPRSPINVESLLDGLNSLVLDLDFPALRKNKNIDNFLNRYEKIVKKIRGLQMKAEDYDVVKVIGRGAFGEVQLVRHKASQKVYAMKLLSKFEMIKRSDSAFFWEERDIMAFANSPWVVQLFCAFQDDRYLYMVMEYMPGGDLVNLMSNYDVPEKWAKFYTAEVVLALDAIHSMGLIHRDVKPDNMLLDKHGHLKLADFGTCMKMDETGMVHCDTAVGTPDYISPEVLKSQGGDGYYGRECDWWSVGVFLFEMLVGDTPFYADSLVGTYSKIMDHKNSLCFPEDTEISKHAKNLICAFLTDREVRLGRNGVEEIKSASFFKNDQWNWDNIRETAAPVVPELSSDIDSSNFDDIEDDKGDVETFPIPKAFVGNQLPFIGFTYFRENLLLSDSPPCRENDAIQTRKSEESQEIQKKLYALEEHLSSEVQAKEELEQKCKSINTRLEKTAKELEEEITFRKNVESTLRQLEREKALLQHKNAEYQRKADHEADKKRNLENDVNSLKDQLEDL
Sequence of PIM2 (Q9P1W9 whole entry): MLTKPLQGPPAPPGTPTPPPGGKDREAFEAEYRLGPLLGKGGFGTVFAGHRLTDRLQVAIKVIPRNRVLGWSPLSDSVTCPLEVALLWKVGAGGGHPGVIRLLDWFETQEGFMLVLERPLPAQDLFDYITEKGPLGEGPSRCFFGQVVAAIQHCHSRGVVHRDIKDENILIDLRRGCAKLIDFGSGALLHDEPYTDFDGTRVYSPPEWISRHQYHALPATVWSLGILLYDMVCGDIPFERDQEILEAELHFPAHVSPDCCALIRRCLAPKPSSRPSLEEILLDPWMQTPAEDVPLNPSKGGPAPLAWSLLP
From the text for DYRK1A: (§2) filter binding assay using 33P-g-ATPat the MRC PPU International Centre for Kinase Profiling, University of
From the text for DYRK3: as §2
From the text for EPH-B2: as §2
From the text for EPH-B3: as §2
From the text for FGF-R1: as §2
From the text for MARK2: as §2
From the text for MARK4: as §2
From the text for MPSK1: as §2
From the text for NEK6: as §2
From the text for PIM2: as §2
From the text for PKA: as §2
From the text for PKD1: as §2
From the text for PRAK: as §2
From the text for ROCK 2: as §2
From the text for SIK2: as §2
From the text for TLK1: as §2
From the text for TrkA: as §2
From the text for VEG-FR: as §2
From the text for p38a MAPK: as §2

Take `FC(F)(F)c1ccccc1-c1nc(NCc2cccs2)c2ccccc2n1` [Compound 1, NIH-12848, reference compound]: the IC50 (usually the concentration needed to halve the response being measured) with PI5P4Kγ is 2000 to 3000 nM; in the assay on PI5P4Kα, more than 100000 nM. On PI5P4Kβ, the ΔTm at 63 µM turned out to be 0.6 ± 0.3 °C.
Regarding `CC(C)c1ccccc1-c1nc(NCc2ccccn2)c2c(ccn2C)n1` [Compound 40], the remaining activity (usually the signal under treatment as a percentage of the control signal) at 10 µM is 108% on ABL; 108% at CDK9-Cyclin T1; 108% on SmMLCK; 125% on PINK; 100% on p38a MAPK; 109% at PKA. The remaining activity at 10 µM on ROCK 2 turned out to be 97%; at PKD1, 109%; on MNK2, 117%; on PRAK it was 98%; at TLK1, 115%; on MARK2, 101%. In addition, the remaining activity at 10 µM at MARK4 was 105%; at SIK2 it was 100%; at DYRK1A, 101%; on DYRK3, 128%; on NEK6 it was 120%; at PIM2, 110%. Also, the remaining activity at 10 µM on MST3 was 110%; at MST4, 110%; on IRAK1, 114%; at MPSK1, 106%; on CSK, 94%; on EPH-B2, 78%. Also, the remaining activity at 10 µM at EPH-B3 was 105%; on FGF-R1, 92%; at IR, 119%; on TrkA, 100%; at VEG-FR it was 125%.
